Laboratory results taken from patent US20030199526A1, “Pyrimidine-based compounds useful as GSK-3 inhibitors” (priority 2001, published 2003).

Molecular target: T1, GSK-3β (AA 1-420) (Homo sapiens, UniProt P49841)
T1 construct: GSK-3β (AA 1-420)
Experiment: Ki determination for the inhibition of GSK-3 (coupled enzyme system)
Type: biochemical
Details: 20 μM ATP, 300 μM peptide, 20 nM GSK-3β, 30° C.
Protocol: Compounds were screened for their ability to inhibit GSK-3β (AA 1-420) activity using a standard coupled enzyme system [Fox et al. Protein Sci. 7, 2249 (1998)]. Reactions were carried out in a solution containing 100 mM HEPES (pH 7.5), 10 mM MgCl2, 25 mM NaCl, 300 μM NADH, 1 mM DTT and 1.5% DMSO. Final substrate concentrations in the assay were 20 μM ATP (Sigma Chemicals, St Louis, Mo.) and 300 μM peptide (American Peptide, Sunnyvale, Calif.). Reactions were carried out at 30° C. and 20 nM GSK-3β. Final concentrations of the components of the coupled enzyme system were 2.5 mM phosphoenolpyruvate, 300 μM NADH, 30 μg/ml pyruvate kinase and 10 μg/ml lactate dehydrogenase.
An assay stock buffer solution was prepared containing all of the reagents listed above with the exception of ATP and the test compound of interest. The assay stock buffer solution (175 μl) was incubated in a 96 well plate with 5 μl of the test compound of interest at final concentrations spanning 0.002 μM to 30 μM at 30° C. for 10 min. Typically, a 12 point titration was conducted by preparing serial dilutions (from 10 mM compound stocks) with DMSO of the test compounds in daughter plates. The reaction was initiated by the addition of 20 μl of ATP (final concentration 20 μM). Rates of reaction were obtained using a Molecular Devices Spectramax plate reader (Sunnyvale, Calif.) over 10 min at 30° C. The Ki values were determined from the rate data as a function of inhibitor concentration.

T1 sequence (P49841 whole entry, species assumed, the tested form may be a part): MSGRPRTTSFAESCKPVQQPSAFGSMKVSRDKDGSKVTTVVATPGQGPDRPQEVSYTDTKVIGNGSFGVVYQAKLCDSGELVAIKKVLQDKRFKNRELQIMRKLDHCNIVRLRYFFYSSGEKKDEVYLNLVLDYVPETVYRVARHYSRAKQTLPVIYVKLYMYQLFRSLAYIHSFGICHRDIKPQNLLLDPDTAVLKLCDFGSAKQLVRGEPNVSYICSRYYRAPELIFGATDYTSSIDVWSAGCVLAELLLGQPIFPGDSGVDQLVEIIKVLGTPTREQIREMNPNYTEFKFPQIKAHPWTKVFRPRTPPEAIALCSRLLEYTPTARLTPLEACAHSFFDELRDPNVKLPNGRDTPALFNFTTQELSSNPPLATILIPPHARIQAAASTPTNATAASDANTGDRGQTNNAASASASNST

Row | Compound | Ki
1 | N#Cc1ccc(NCCNc2nc(-c3ccc(F)cc3F)nc3ccccc23)nc1 [Compound I-191, 6-{2-[2-(2,4-Difluoro-phenyl)-quinazolin-4-ylamino]-ethylamino}-nicotinonitrile] | < 0.1 µM
2 | COc1ccccc1-c1nc(NCCNc2ccc(C#N)cn2)c2ccccc2n1 [Compound I-188, 6-{2-[2-(2-Methoxy-phenyl)-quinazolin-4-ylamino]-ethylamino}-nicotinonitrile] | < 0.1 µM
3 | Cc1nc(-c2ccccc2Cl)nc(NCCNc2ccc(C#N)cn2)c1C [Compound I-200] | < 0.1 µM
4 | N#Cc1ccc(NCCNc2nc(-c3ccccc3O)nc3ccccc23)nc1 [Compound I-189, 6-{2-[2-(2-Hydroxy-phenyl)-quinazolin-4-ylamino]-ethylamino}-nicotinonitrile] | < 0.1 µM
5 | N#Cc1ccc(NCCNc2nc(-c3ccccc3Cl)nc3ccccc23)nc1 [Compound I-11, 6-{2-[2-(2-Chloro-phenyl)-quinazolin-4-ylamino]-ethylamino}-nicotinonitrile] | < 0.1 µM
6 | N#Cc1ccc(NCCNc2nc(-c3ccc(Cl)cc3Cl)nc3ccccc23)nc1 [Compound I-1, 6-{2-[2-(2,4-Dichloro-phenyl)-quinazolin-4-ylamino]-ethylamino}-nicotinonitrile] | < 0.1 µM
7 | Cc1nc(-c2ccccc2C(F)(F)F)nc(NCCNc2ccc(C#N)cn2)c1C [Compound I-197, 6-{2-[5,6-Dimethyl-2-(2-trifluoromethyl-phenyl)-pyrimidin-4-ylamino]-ethylamino}-nicotinonitrile] | < 0.1 µM

Other lines, results leading:

Row | Ki | Compound
8 | < 0.1 µM | Cc1nc(-c2ccc(Cl)cc2Cl)nc(NCCNc2ccc(C#N)cn2)c1C [Compound I-198, 6-{2-[2-(2,4-Dichloro-phenyl)-5,6-dimethyl-pyrimidin-4-ylamino]-ethylamino}-nicotinonitrile]
9 | < 0.1 µM | N#Cc1ccc(NCCNc2nc(-c3ccc(Cl)cc3Cl)nc3ccccc23)cc1 [Compound I-62, 4-{2-[2-(2,4-Dichloro-phenyl)-quinazolin-4-ylamino]-ethylamino}-benzonitrile]
10 | < 0.1 µM | N#Cc1ccc(NCCNc2nc(-c3cc(Cl)ccc3-c3ccccc3)nc3ccccc23)nc1 [Compound I-195, 6-{2-[2-(4-Chloro-biphenyl-2-yl)-quinazolin-4-ylamino]-ethylamino}-nicotinonitrile]
11 | < 0.1 µM | N#Cc1ccc(NCCNc2nc(-c3ccccc3)nc3ccccc23)nc1 [Compound I-9, 6-[2-(2-Phenyl-quinazolin-4-ylamino)-ethylamino]-nicotinonitrile]
12 | < 0.1 µM | N#Cc1ccc(NCCNc2nc(-c3ccc(Cl)cc3)nc3ccccc23)nc1 [Compound I-2]
13 | < 0.1 µM | N#Cc1ccc(-c2nc(NCCNc3ccc(C#N)cn3)c3ccccc3n2)cc1 [Compound I-19, 6-{2-[2-(4-Cyano-phenyl)-quinazolin-4-ylamino]-ethylamino}-nicotinonitrile]
14 | < 0.1 µM | N#Cc1ccc(NCCNc2nc(-c3ccccc3F)nc3ccccc23)nc1 [Compound I-190, 6-{2-[2-(2-Fluoro-phenyl)-quinazolin-4-ylamino]-ethylamino}-nicotinonitrile]
15 | < 0.1 µM | N#Cc1ccc(NCCNc2nc(-c3ccccc3C(F)(F)F)nc3ccccc23)nc1 [Compound I-8, 6-{2-[2-(Trifluoromethyl-phenyl)-quinazolin-4-ylamino]-ethylamino}-nicotinonitrile]
16 | < 0.1 µM | N#Cc1ccc(NCCNc2nc(-c3ccccc3Cl)nc3cccnc23)nc1 [Compound I-118, 6-{2-[2-(2-Chloro-phenyl)-pyrido[3,2-d]pyrimidin-4-ylamino]-ethylamino}-nicotinonitrile]
